Experimental data as given in patent US6403357B1, “Thermostable D-hydantoinase and the application thereof” (National Science Council, priority 2000, dated 2002).
Read-outs that look alike come from different tables or passages of the source.

Key:
Assay type in all cases: biochemical, Bacillus circulans
D-hydantoinase [1] = assay: Substrate selection of D-hydantoinase; details: substrate 10 mM; for Conversion to the corresponding N-carbamoyl amino acid / Specific activity: 50° C., 10 min; for Relative activity: percentage based on activity for dihydrouracil
Description: 10 mM Dihydrouracil, hydantoin, D,L-p-HPH, 5-[2-(methylthio)ethyl]hydantoin, and D,L-homophenylalanyl-hydantoin were used as substrates, respectively. The vector pQE-bcidht in E. coli NovaBlue, crude extracts thereof or the purified D-hydantoinase of the present invention was reacted with each substrate at 50° C. for 10 min. Enzyme activity was then measured.

D-hydantoinase [2] = assay: Effects of chelator on D-hydantoinase activity; details: chelator 10 μM, incubation for 10 hours
Description: The vector pQE-bcidht in E. coli NovaBlue, crude extracts thereof or the purified D-hydantoinase of the present invention was mixed with hydrophilic chelator, EDTA, and hydrophobic chelator, 2,6-dipicolinic acid, at 10 μM concentration, respectively. The mixture was incubated for 0-12 hours, and the enzyme activity was measured.

D-hydantoinase [3] = assay: Effects of metal ions on D-hydantoinase activity
D-hydantoinase [4] = assay: Effects of H2O2, NaCl and NH4Cl on D-hydantoinase activity; details: 10 min; for Effect on enzyme activity: concentration as high as 0.8 M, room temperature
Description: The vector pQE-bcidht in E. coli NovaBlue, crude extracts thereof or the purified D-hydantoinase of the present invention was incubated at 25° C. for 10 min. Afterwards, the catalase was added to the solution to remove residual H2O2, and then the enzyme activity was measured. In addition, various concentrations of NaCl and NH4Cl were added to the solution containing D-hydantoinase. The solution was incubated at room temperature for 10 min, and the enzyme activity was measured.

D-hydantoinase [5] = assay: Conditions of converting D,L-p-HPH by D-hydantoinase; details: enzyme pre-mixed with Mn2+ and incubated in an ice solution for 4 days
Description: The reaction pH of D-hydantoinase is between 5 and 10. […] The substrate solubility and enzyme activity can be elevated by grinding D,L-p-HPH to powder form, dissolving the powdered substrate in 50 mM Tris-HCl (pH 8.0), followed by stirring the solution at room temperature for 2 hours. In addition, A suitable amount of DMSO can also enhance the solubility of substrate D,L-p-HPH, and elevate the conversion efficiency from D,L-p-HPH to D-p-HPG by the D-hydantoinase of the present invention.

D-hydantoinase [6] = assay: Thermostability of D-hydantoinase; details: after 60 days incubation at 50° C.
Description: The vector pQE-bcidht in E. coli NovaBlue, crude extracts thereof or the purified D-hydantoinase of the present invention (47 unit/mg; containing 500 μM Mn^2+), was incubated at 50° C. in a thermostat water bath. The specific activity of the enzyme was measured at various time intervals.

D-hydantoinase [7] = assay: Reaction temperature of D-hydantoinase; details: 500 μM Mn2+, 10 mM D,L-p-HPH, pH 8.0, 10 min
Description: The vector pQE-bcidht in E. coli NovaBlue, crude extracts thereof or the purified D-hydantoinase of the present invention (containing 500 μM Mn^2+), was added to 10 mM substrate of D,L-p-HPH (dissolved in 50 mM Tris-HCl (pH 8.0)). The mixture was incubated at various temperature (30-90° C.) for 10 min. The specific activity of the enzyme was then measured.

D-hydantoinase [8] = assay: Reaction pH of D-hydantoinase; details: 10 mM D,L-p-HPH, 50° C., 10 min
Description: The substrate D,L-p-HPH was dissolved in various pH buffers at the final concentration of 10 mM. The vector pQE-bcidht in E. coli NovaBlue, crude extracts thereof or the purified D-hydantoinase of the present invention, were added to each buffer containing substrate, and incubated at 50° C. for 10 min. The specific activity of the enzyme was then measured.

[9] = ion 500 μM, 15 min at room temperature, 10 mM D,L-p-HPH in 50 mM Tris-HCl pH 8.0
[10] = ion 500 μM, percentage based on activity without adding ions

Q: Which results are given for O=C1NC(=O)C(CCc2ccccc2)N1 (racemic) [D,L-Homophenylalanyl-hydantoin, D,L-homophenylalanyl-hydantoin]?
A: Conversion to the corresponding N-carbamoyl amino acid (D-hydantoinase [1]): capable of converting; Specific activity (D-hydantoinase [1]): 45.64 unit/mg; Relative activity (D-hydantoinase [1]): 84%

Q: How did the “Conversion to the corresponding N-carbamoyl amino acid” value (D-hydantoinase [1]) turn out when O=C1NC(=O)C(c2ccc(O)cc2)N1 (racemic) [D,L-p-Hydroxyphenylhydantoin, D,L-p-hydroxyphenylhydantoin] was run?
A: capable of converting

Q: What about the Specific activity (D-hydantoinase [1]) of the same molecule?
A: 47.43 unit/mg

Q: And the Relative activity (D-hydantoinase [1])?
A: 87%

Q: For O=C(O)c1cccc(C(=O)O)n1 [2,6-dipicolinic acid], which Retained enzyme activity (D-hydantoinase [2]) is on record?
A: 40%

Q: Which results are given for CSCCC1NC(=O)NC1=O (stereo not shown) [5-[2-(Methylthio)ethyl]-hydantoin, 5-[2-(methylthio)ethyl]hydantoin]?
A: Conversion to the corresponding N-carbamoyl amino acid (D-hydantoinase [1]): capable of converting; Specific activity (D-hydantoinase [1]): 21.48 unit/mg; Relative activity (D-hydantoinase [1]): 40%

Q: What does the source list for [Ca+2].[Cl-].[Cl-] [CaCl2]?
A: Specific activity (D-hydantoinase [3]; [9]): 2.53 unit/mg; Relative activity (D-hydantoinase [3]; [10]): 88%

Q: For [Cl-].[Cl-].[Co+2] [CoCl2], which “Effect on enzyme activity” value (D-hydantoinase [3]) is on record?
A: enhance the enzyme activity

Q: What about the “Increase of enzyme activity, times original activity” value (shortened to “Increase of enzyme activity”) (D-hydantoinase [3]) of the same molecule?
A: 4.5 times

Q: What about the Relative activity (D-hydantoinase [3]) of the same molecule?
A: 252%

Q: And the Specific activity (D-hydantoinase [3]; pH 8)?
A: 7.25 unit/mg

Q: What does the source list for [Cl][Cu][Cl] [CuCl2]?
A: Inhibition of D-hydantoinase activity (D-hydantoinase [3]; ion 500 μM): 22%; Specific activity (D-hydantoinase [3]; [9]): 2.26 unit/mg; Relative activity (D-hydantoinase [3]; [10]): 78%

Q: O=C1CCNC(=O)N1 [Dihydrouracil] was tested. Which Specific activity (D-hydantoinase [1]) did it give?
A: 54.29 unit/mg

Q: What about the Specific activity (D-hydantoinase [1]; listed as dihydrouracil) of the same molecule?
A: 54 unit/mg

Q: And the Relative activity (D-hydantoinase [1])?
A: 100%

Q: O=C(O)CN(CCN(CC(=O)O)CC(=O)O)CC(=O)O [EDTA] was tested. Which Retained enzyme activity (D-hydantoinase [2]) did it give?
A: 70%

Q: Which results are given for [Cl][Fe]([Cl])[Cl] [FeCl3]?
A: Specific activity (D-hydantoinase [3]; [9]): 2.52 unit/mg; Relative activity (D-hydantoinase [3]; [10]): 87.5%

Q: Which results are given for O=S(=O)([O-])[O-].[Fe+2] [FeSO2]?
A: Specific activity (D-hydantoinase [3]; [9]): 2.52 unit/mg; Relative activity (D-hydantoinase [3]; [10]): 87.5%

Q: With OO [H2O2] as the molecule, how does the Retained enzyme activity (D-hydantoinase [4]; 0.8 M H2O2, 25° C.) read?
A: 85%

Q: How did the “Conversion to the corresponding N-carbamoyl amino acid” value (D-hydantoinase [1]) turn out when O=C1CNC(=O)N1 [Hydantoin] was run?
A: capable of converting

Q: And the Specific activity (D-hydantoinase [1])?
A: 41.43 unit/mg

Q: And the Relative activity (D-hydantoinase [1])?
A: 76%

Q: What does the source list for [Cl-].[Cl-].[Mg+2] [MgCl2]?
A: Specific activity (D-hydantoinase [3]; [9]): 2.62 unit/mg; Relative activity (D-hydantoinase [3]; [10]): 91%

Q: What does the source list for O=S(=O)([O-])[O-].[Mg+2] [MgSO4]?
A: Specific activity (D-hydantoinase [3]; [9]): 2.69 unit/mg; Relative activity (D-hydantoinase [3]; [10]): 94%

Q: [Cl][Mn][Cl] [MnCl2] was tested. Which “Increase of enzyme activity” value (D-hydantoinase [3]; 500 μM Mn2+) did it give?
A: 7.7 times

Q: And the “Effect on enzyme activity” value (D-hydantoinase [3]; divalent metal ion added)?
A: enhance the enzyme activity

Q: And the Specific activity (D-hydantoinase [3]; [9])?
A: 22.25 unit/mg

Q: What about the Relative activity (D-hydantoinase [3]; [10]) of the same molecule?
A: 773%

Q: With Cl.N [NH4Cl] as the molecule, how does the “Effect on enzyme activity” value (D-hydantoinase [4]) read?
A: not affected

Q: With [Cl-].[Na+] [NaCl] as the molecule, how does the “Effect on enzyme activity” value (D-hydantoinase [4]) read?
A: not affected

Q: How did the “Increase of enzyme activity” value (D-hydantoinase [3]; 100 μM Ni2+) turn out when O=S(=O)([O-])[O-].[Ni+2] [NiSO4] was run?
A: 1.3 times

Q: What about the “Effect on enzyme activity” value (D-hydantoinase [3]; divalent metal ion added) of the same molecule?
A: enhance the enzyme activity

Q: And the Specific activity (D-hydantoinase [3]; [9])?
A: 4.00 unit/mg

Q: What about the Relative activity (D-hydantoinase [3]; [10]) of the same molecule?
A: 139%

Q: Which “Inhibition of D-hydantoinase activity” value (D-hydantoinase [3]; ion 500 μM) does the source give for O=S(=O)([O-])[O-].[Zn+2] [ZnSO4] here?
A: 50%

Q: And the Specific activity (D-hydantoinase [3]; [9])?
A: 1.44 unit/mg

Q: And the Relative activity (D-hydantoinase [3]; [10])?
A: 50%

B1: D-hydantoinase: thermostable D-hydantoinase from Bacillus circulans, amino acid sequence SEQ ID NO:1, 461 amino acids, expressed in E. coli (protein)
chain: MKKWIRNGTVVTASDTYQADVLIDGEKVVAIGSDLQATDAEVIDATGYYLLPGGIDPHTHLDMPFGGTVTSDNFFTGTKAAAFGGTTSIVDFCLTSKGESLHSAIATWHEKARGKAVIDYGFHLMVSDANDHVLEELESVVNNEGITSLKVFMAYKNVLMADDETLFKTLIRAKELGALVQVHAENGDVLDYLTKQALAEGNTDPIYHAYTRPPEAEGEATGRAIALTALADAQLYVVHVSCADAVRRIAEAREKGWNVYGETCPQYLVLDITALEKPDFEGAKYVWSPPLREKWNQDVLWSALKNGILQTVGSDHCPFNFSGQKELGRRDFTKIPNGGPIIEDRMTILFSEGVRKGKISLNQFVDITSTKVAKLFGMFPQKGTIAVGSDADIVLFDPTVQRTISVETHHMNVDYNPFEGMQVHGDVISVLSRGAFVVRNKQFVGHAGAGRYVKRSTFARP
Q: With B1 as the molecule, how does the “Maximum specific activity for catalysis of D,L-p-HPH” value (D-hydantoinase [5]) read?
A: 47 unit/mg

Q: What about the “Activity after long incubation” value (D-hydantoinase [6]) of the same molecule?
A: retains activity

Q: And the Specific activity (D-hydantoinase [7]; 30° C.)?
A: 9.0 unit/mg

Q: What about the Highest specific activity (D-hydantoinase [7]; 60° C.) of the same molecule?
A: 28.32 unit/mg

Q: What about the Specific activity (D-hydantoinase [7]; 90° C.) of the same molecule?
A: 4.26 unit/mg

Q: And the “Enzyme activity” value (D-hydantoinase [8]; pH 4.0)?
A: loses its entire activity

Q: What about the Highest specific activity (D-hydantoinase [8]; pH 8.5) of the same molecule?
A: 3.36 unit/mg
